From the supplement of paper PMC8612539
Converted amounts (≈) assume the structure as drawn.

Columns and labels:
[1] = system: Mannheimia haemolytica; experiment: minimum inhibitory concentration (MIC)
Method: (§1)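 Broth microdilution MIC (Sensititre BOPO7F bovine plate, CLSI methods) of 19 antimicrobials against field isolates of P. multocida, M. haemolytica, H. somni (deep nasopharyngeal swabs) and E. coli, Enterococcus spp. (rectal swabs) from weaned dairy heifers. Incubation 16-24 h at 35 C. MIC is the lowest concentration preventing visible growth. Values with <= or > lie at the tested range limits. Trimethoprim-sulfamethoxazole is given as the trimethoprim component of a 1:19 mixture.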

[2] = system: Enterococcus spp.; experiment: minimum inhibitory concentration (MIC)
Method: as §1

CCCNC[C@]1(O)[C@H](C)O[C@@H](O[C@H]2[C@H](C)[C@@H](O[C@@H]3O[C@H](C)C[C@H](N(C)C)[C@H]3O)[C@](C)(O)C[C@@H](C)CN[C@H](C)[C@@H](O)[C@](C)(O)[C@@H](CC)OC(=O)[C@@H]2C)C[C@@]1(C)OC [Tulathromycin]
minimum inhibitory concentration [µg/mL]
Details	[1]	[2]
isolate (source animal id): 2	–	≤ 8
isolate (source animal id): 8	≤ 8	–
isolate (source animal id): 13	≤ 8	–
isolate (source animal id): 18	≤ 8	–
isolate (source animal id): 21	≤ 8	–
isolate (source animal id): 25	16 (≈ 19.8 µM)	–
isolate (source animal id): 27	16 (≈ 19.8 µM)	–
isolate (source animal id): 28	≤ 8	–
isolate (source animal id): 30	≤ 8	–
isolate (source animal id): 31	16 (≈ 19.8 µM)	–
isolate (source animal id): 32	≤ 8	–
isolate (source animal id): 34	≤ 8	–
isolate (source animal id): 35	–	> 64
isolate (source animal id): 36	16 (≈ 19.8 µM)	–
isolate (source animal id): 37	16 (≈ 19.8 µM)	–
isolate (source animal id): 40	≤ 8	–
isolate (source animal id): 41	≤ 8	–
isolate (source animal id): 42	–	≤ 8
isolate (source animal id): 43	≤ 8	–
isolate (source animal id): 44	–	≤ 8
isolate (source animal id): 46	16 (≈ 19.8 µM)	–
isolate (source animal id): 49	16 (≈ 19.8 µM)	–
isolate (source animal id): 50	16 (≈ 19.8 µM)	–
isolate (source animal id): 51	≤ 8	–
isolate (source animal id): 52	≤ 8	–
isolate (source animal id): 53	≤ 8	–
isolate (source animal id): 55	≤ 8	–
isolate (source animal id): 56	≤ 8	–
isolate (source animal id): 57	> 64	–
isolate (source animal id): 79	–	≤ 8
isolate (source animal id): 88	–	≤ 8
isolate (source animal id): 91	–	≤ 8
isolate (source animal id): 92	–	16 (≈ 19.8 µM)
isolate (source animal id): 100	16 (≈ 19.8 µM)	–
isolate (source animal id): 103	16 (≈ 19.8 µM)	–
isolate (source animal id): 107	16 (≈ 19.8 µM)	–
isolate (source animal id): 108	16 (≈ 19.8 µM)	–
isolate (source animal id): 111	–	≤ 8
isolate (source animal id): 112	> 64	–
isolate (source animal id): 113	> 64	–
isolate (source animal id): 121	16 (≈ 19.8 µM)	–
isolate (source animal id): 122	16 (≈ 19.8 µM)	> 64
isolate (source animal id): 123	> 64	≤ 8
isolate (source animal id): 126	64 (≈ 79.4 µM)	–
isolate (source animal id): 133	> 64	≤ 8
isolate (source animal id): 135	> 64	–
isolate (source animal id): 138	64 (≈ 79.4 µM)	–
isolate (source animal id): 141	> 64	–
isolate (source animal id): 142	64 (≈ 79.4 µM)	–
isolate (source animal id): 145	16 (≈ 19.8 µM)	–
isolate (source animal id): 149	≤ 8	–
isolate (source animal id): 151	≤ 8	–
isolate (source animal id): 152	16 (≈ 19.8 µM)	–
isolate (source animal id): 154	≤ 8	–
isolate (source animal id): 158	–	> 64
isolate (source animal id): 159	> 64	–
isolate (source animal id): 162	64 (≈ 79.4 µM)	–
isolate (source animal id): 168	–	≤ 8
isolate (source animal id): 169	–	≤ 8
isolate (source animal id): 170	≤ 8	–
isolate (source animal id): 171	≤ 8	≤ 8
isolate (source animal id): 172	≤ 8	–
isolate (source animal id): 173	≤ 8	–
isolate (source animal id): 175	–	> 64
isolate (source animal id): 177	–	≤ 8
isolate (source animal id): 179	≤ 8	–
isolate (source animal id): 180	≤ 8	–
isolate (source animal id): 181	–	≤ 8
isolate (source animal id): 182	–	≤ 8
isolate (source animal id): 183	≤ 8	≤ 8
isolate (source animal id): 186	≤ 8	–
isolate (source animal id): 187	≤ 8	≤ 8
isolate (source animal id): 188	≤ 8	–
isolate (source animal id): 190	≤ 8	≤ 8
isolate (source animal id): 191	≤ 8	–
isolate (source animal id): 192	≤ 8	–
isolate (source animal id): 194	–	≤ 8
isolate (source animal id): 195	–	≤ 8
isolate (source animal id): 197	–	≤ 8
isolate (source animal id): 201	≤ 8	–
isolate (source animal id): 202	≤ 8	–
isolate (source animal id): 209	≤ 8	–
isolate (source animal id): 211	≤ 8	≤ 8
isolate (source animal id): 214	–	16 (≈ 19.8 µM)
isolate (source animal id): 220	≤ 8	–
isolate (source animal id): 221	≤ 8	–
isolate (source animal id): 222	–	≤ 8
isolate (source animal id): 223	≤ 8	≤ 8
isolate (source animal id): 228	–	> 64
isolate (source animal id): 230	–	> 64
isolate (source animal id): 233	16 (≈ 19.8 µM)	–
isolate (source animal id): 235	–	> 64
isolate (source animal id): 236	–	≤ 8
isolate (source animal id): 237	32 (≈ 39.7 µM)	–
isolate (source animal id): 239	–	≤ 8
isolate (source animal id): 241	16 (≈ 19.8 µM)	> 64
isolate (source animal id): 244	–	≤ 8
isolate (source animal id): 246	–	≤ 8
isolate (source animal id): 247	–	> 64
isolate (source animal id): 250	–	≤ 8
isolate (source animal id): 252	16 (≈ 19.8 µM)	> 64
isolate (source animal id): 253	16 (≈ 19.8 µM)	–
isolate (source animal id): 259	> 64	–
isolate (source animal id): 260	16 (≈ 19.8 µM)	–
isolate (source animal id): 262	16 (≈ 19.8 µM)	–
isolate (source animal id): 268	–	> 64
isolate (source animal id): 282	> 64	≤ 8
isolate (source animal id): 285	–	> 64
isolate (source animal id): 287	16 (≈ 19.8 µM)	–
isolate (source animal id): 288	≤ 8	–
isolate (source animal id): 289	–	≤ 8
isolate (source animal id): 290	–	≤ 8
isolate (source animal id): 291	≤ 8	–
isolate (source animal id): 293	16 (≈ 19.8 µM)	–
isolate (source animal id): 296	–	≤ 8
isolate (source animal id): 298	> 64	≤ 8
isolate (source animal id): 299	> 64	–
isolate (source animal id): 300	≤ 8	–
isolate (source animal id): 301	–	≤ 8
isolate (source animal id): 302	> 64	–
isolate (source animal id): 304	> 64	–
isolate (source animal id): 306	≤ 8	–
isolate (source animal id): 308	≤ 8	–
isolate (source animal id): 309	≤ 8	–
isolate (source animal id): 310	–	> 64
isolate (source animal id): 313	32 (≈ 39.7 µM)	–
isolate (source animal id): 318	≤ 8	–
isolate (source animal id): 320	≤ 8	≤ 8
isolate (source animal id): 321	32 (≈ 39.7 µM)	–
isolate (source animal id): 323	> 64	–
isolate (source animal id): 324	16 (≈ 19.8 µM)	–
isolate (source animal id): 326	32 (≈ 39.7 µM)	–
isolate (source animal id): 328	32 (≈ 39.7 µM)	–
isolate (source animal id): 329	32 (≈ 39.7 µM)	–
isolate (source animal id): 331	–	≤ 8
isolate (source animal id): 333	32 (≈ 39.7 µM)	≤ 8
isolate (source animal id): 335	16 (≈ 19.8 µM)	–
isolate (source animal id): 338	16 (≈ 19.8 µM)	–
isolate (source animal id): 341	–	> 64
